The record followed here is patent US12049450B2, “Pyridyloxy-carboxylate derivative and preparation method therefor, herbicidal composition, and use” (Qingdao Kingagroot Chemical Compound Co., Ltd., priority 2018, dated 2024).

What all share (experiment): Post-emergence test experiment (greenhouse pot, spray at 2-3 leaf stage)
Common to all, as to format: in vivo
Holding throughout (details): 1000 g/ha; post-emergence spray at 2-3 leaf stage; assessed after 3 weeks; fresh weight inhibition rate

One assay deals with Galium spurium. The source says:
(§1) The activity level standard of harmful plants destruction (i. e. growth inhibition rate) is as follows: • Level 5: the growth inhibition rate is greater than 85%; • Level 4: the growth inhibition rate is equal to or greater than 60% and less than 85%; • Level 3: the growth inhibition rate is equal to or greater than 40% and less than 60%; • Level 2: the growth inhibition rate is equal to or greater than 20% and less than 40%; • Level 1: the growth inhibition rate is equal to or greater than 5% and less than 20%; • Level 0: the growth inhibition rate is less than 5%;
(§2) The above described growth inhibition rate is fresh weight inhibition rate.
(§3) Post-emergence test experiment: Monocotyledonous and dicotyledonous weed seeds and main crop seeds (i. e. wheat, corn, rice, soybean, cotton, oilseed, millet and sorghum.) were put into a plastic pot loaded with soil. Then covered with 0.5-2 cm soil, the seeds were allowed to grow in good greenhouse environment. The test plants were treated at 2-3 leaf stage 2 weeks after sowing. The test compounds of the invention were dissolved with acetone respectively, then added with tween-80, and using 1.5 liters per hectare of an emulsible concentrate of methyl oleate as a synergist, and diluted by certain amount of water to certain concentration. The solution was sprayed to the plants with a sprayer. Then the plants were cultured for 3 weeks in the greenhouse, and the experiment result of weed controlling effect after 3 weeks was listed in tables 3-4.

The test system of a further assay is Monochoria vaginalis.
Description: as §1, §2, §3

Another assay relates to Abutilon theophrasti.
Description: as §1, §2, §3

In the case of `CCC(Oc1nc(F)c(Cl)c(N)c1Cl)C(=O)OCc1ccccc1` (stereo not drawn) [Compound 25], in the assay on Galium spurium, the “Activity level (growth inhibition rate) Galium spurium” value was 5 (Level 5: the growth inhibition rate is greater than 85%). The “Activity level (growth inhibition rate) Monochoria Vaginalis” value in the assay with Monochoria vaginalis is on record as 5 (Level 5: the growth inhibition rate is greater than 85%). Besides, the “Activity level (growth inhibition rate) Abutilon theophrasti” value in the assay on Abutilon theophrasti is on record as 5 (Level 5: the growth inhibition rate is greater than 85%).

Consider `CCCC(Oc1nc(F)c(Cl)c(N)c1Cl)C(=O)SCc1ccccc1` (stereo not drawn) [Compound 26], for which the “Activity level (growth inhibition rate) Galium spurium” value in the assay with Galium spurium is given as 5 (Level 5: the growth inhibition rate is greater than 85%). Moreover, the “Activity level (growth inhibition rate) Monochoria Vaginalis” value with Monochoria vaginalis was 5 (Level 5: the growth inhibition rate is greater than 85%). The “Activity level (growth inhibition rate) Abutilon theophrasti” value in the assay with Abutilon theophrasti is 5 (Level 5: the growth inhibition rate is greater than 85%).

For the compound `Nc1c(Cl)c(F)nc(OC(C(=O)OCc2ccccc2)C2CC2)c1Cl` (stereo not drawn) [Compound 28], the “Activity level (growth inhibition rate) Galium spurium” value in the assay with Galium spurium is recorded as 5 (Level 5: the growth inhibition rate is greater than 85%). The “Activity level (growth inhibition rate) Monochoria Vaginalis” value with Monochoria vaginalis is 5 (Level 5: the growth inhibition rate is greater than 85%). In the assay on Abutilon theophrasti, the “Activity level (growth inhibition rate) Abutilon theophrasti” value is listed as 5 (Level 5: the growth inhibition rate is greater than 85%).

As to `COCC(Oc1nc(F)c(Cl)c(N)c1Cl)C(=O)OCc1ccccc1` (stereo not drawn) [Compound 29], the “Activity level (growth inhibition rate) Galium spurium” value with Galium spurium is 5 (Level 5: the growth inhibition rate is greater than 85%). The “Activity level (growth inhibition rate) Monochoria Vaginalis” value with Monochoria vaginalis is recorded as 5 (Level 5: the growth inhibition rate is greater than 85%). In addition, in the assay with Abutilon theophrasti, the “Activity level (growth inhibition rate) Abutilon theophrasti” value was 5 (Level 5: the growth inhibition rate is greater than 85%).

On to `COCCC(Oc1nc(F)c(Cl)c(N)c1Cl)C(=O)SCc1ccccc1` (stereo not drawn) [Compound 30], for which, in the assay on Galium spurium, the “Activity level (growth inhibition rate) Galium spurium” value is 5 (Level 5: the growth inhibition rate is greater than 85%). Besides, the “Activity level (growth inhibition rate) Monochoria Vaginalis” value in the assay on Monochoria vaginalis is 5 (Level 5: the growth inhibition rate is greater than 85%). Besides, the “Activity level (growth inhibition rate) Abutilon theophrasti” value in the assay on Abutilon theophrasti is on record as 5 (Level 5: the growth inhibition rate is greater than 85%).

For the compound `COC(C)C(Oc1nc(F)c(Cl)c(N)c1Cl)C(=O)OCc1ccccc1` (stereo not drawn) [Compound 31], in the assay with Galium spurium, the “Activity level (growth inhibition rate) Galium spurium” value is 5 (Level 5: the growth inhibition rate is greater than 85%). The “Activity level (growth inhibition rate) Monochoria Vaginalis” value with Monochoria vaginalis is reported as 5 (Level 5: the growth inhibition rate is greater than 85%). Further, the “Activity level (growth inhibition rate) Abutilon theophrasti” value with Abutilon theophrasti is recorded as 5 (Level 5: the growth inhibition rate is greater than 85%).

On to `C=CC(Oc1nc(F)c(Cl)c(N)c1Cl)C(=O)OCc1ccccc1` (stereo not drawn) [Compound 32], for which the “Activity level (growth inhibition rate) Galium spurium” value with Galium spurium is 5 (Level 5: the growth inhibition rate is greater than 85%). The “Activity level (growth inhibition rate) Monochoria Vaginalis” value in the assay on Monochoria vaginalis is 5 (Level 5: the growth inhibition rate is greater than 85%). In the assay on Abutilon theophrasti, the “Activity level (growth inhibition rate) Abutilon theophrasti” value is given as 5 (Level 5: the growth inhibition rate is greater than 85%).

As for `C#CC(Oc1nc(F)c(Cl)c(N)c1Cl)C(=O)SCc1ccccc1` (stereo not drawn) [Compound 33], in the assay with Galium spurium, the “Activity level (growth inhibition rate) Galium spurium” value was 5 (Level 5: the growth inhibition rate is greater than 85%). The “Activity level (growth inhibition rate) Monochoria Vaginalis” value in the assay on Monochoria vaginalis is listed as 5 (Level 5: the growth inhibition rate is greater than 85%). In addition, the “Activity level (growth inhibition rate) Abutilon theophrasti” value with Abutilon theophrasti was 5 (Level 5: the growth inhibition rate is greater than 85%).

Take `Nc1c(Cl)c(F)nc(OC(F)C(=O)OCc2ccccc2)c1Cl` (stereo not drawn) [Compound 34]: in the assay on Galium spurium, the “Activity level (growth inhibition rate) Galium spurium” value is reported as 5 (Level 5: the growth inhibition rate is greater than 85%). The “Activity level (growth inhibition rate) Monochoria Vaginalis” value with Monochoria vaginalis was 5 (Level 5: the growth inhibition rate is greater than 85%). The “Activity level (growth inhibition rate) Abutilon theophrasti” value in the assay with Abutilon theophrasti is recorded as 5 (Level 5: the growth inhibition rate is greater than 85%).

As for `Nc1c(Cl)c(F)nc(OC(Cl)C(=O)OCc2ccccc2)c1Cl` (stereo not drawn) [Compound 35], the “Activity level (growth inhibition rate) Galium spurium” value in the assay with Galium spurium is 5 (Level 5: the growth inhibition rate is greater than 85%). Besides, in the assay with Monochoria vaginalis, the “Activity level (growth inhibition rate) Monochoria Vaginalis” value is 5 (Level 5: the growth inhibition rate is greater than 85%). Besides, in the assay on Abutilon theophrasti, the “Activity level (growth inhibition rate) Abutilon theophrasti” value was 5 (Level 5: the growth inhibition rate is greater than 85%).

For `Nc1c(Cl)c(F)nc(OC(Br)C(=O)SCc2ccccc2)c1Cl` (stereo not drawn) [Compound 36], the “Activity level (growth inhibition rate) Galium spurium” value in the assay with Galium spurium was 5 (Level 5: the growth inhibition rate is greater than 85%). Besides, the “Activity level (growth inhibition rate) Monochoria Vaginalis” value in the assay on Monochoria vaginalis is recorded as 5 (Level 5: the growth inhibition rate is greater than 85%). In addition, the “Activity level (growth inhibition rate) Abutilon theophrasti” value in the assay on Abutilon theophrasti is listed as 5 (Level 5: the growth inhibition rate is greater than 85%).

With `Nc1c(Cl)c(F)nc(OC(CCl)C(=O)OCc2ccccc2)c1Cl` (stereo not drawn) [Compound 37], the “Activity level (growth inhibition rate) Galium spurium” value in the assay with Galium spurium is given as 5 (Level 5: the growth inhibition rate is greater than 85%). For the same compound, in the assay with Monochoria vaginalis, the “Activity level (growth inhibition rate) Monochoria Vaginalis” value is 5 (Level 5: the growth inhibition rate is greater than 85%). In the assay on Abutilon theophrasti, the “Activity level (growth inhibition rate) Abutilon theophrasti” value is given as 5 (Level 5: the growth inhibition rate is greater than 85%).

Turning to `Nc1c(Cl)c(F)nc(OC(CF)C(=O)SCc2ccccc2)c1Cl` (stereo not drawn) [Compound 38], in the assay on Galium spurium, the “Activity level (growth inhibition rate) Galium spurium” value is recorded as 5 (Level 5: the growth inhibition rate is greater than 85%). In the assay with Monochoria vaginalis, the “Activity level (growth inhibition rate) Monochoria Vaginalis” value is recorded as 5 (Level 5: the growth inhibition rate is greater than 85%). Besides, the “Activity level (growth inhibition rate) Abutilon theophrasti” value with Abutilon theophrasti is 5 (Level 5: the growth inhibition rate is greater than 85%).

For the compound `Nc1c(Cl)c(F)nc(OC(C(=O)OCc2ccccc2)C(F)F)c1Cl` (stereo not drawn) [Compound 39], in the assay on Galium spurium, the “Activity level (growth inhibition rate) Galium spurium” value was 5 (Level 5: the growth inhibition rate is greater than 85%). In the assay on Monochoria vaginalis, the “Activity level (growth inhibition rate) Monochoria Vaginalis” value is 5 (Level 5: the growth inhibition rate is greater than 85%). Moreover, the “Activity level (growth inhibition rate) Abutilon theophrasti” value in the assay on Abutilon theophrasti was 5 (Level 5: the growth inhibition rate is greater than 85%).

Take `Nc1c(Cl)c(F)nc(OC(CCCl)C(=O)OCc2ccccc2)c1Cl` (stereo not drawn) [Compound 40]: the “Activity level (growth inhibition rate) Galium spurium” value with Galium spurium was 5 (Level 5: the growth inhibition rate is greater than 85%). For the same compound, the “Activity level (growth inhibition rate) Monochoria Vaginalis” value with Monochoria vaginalis is given as 5 (Level 5: the growth inhibition rate is greater than 85%). Also, the “Activity level (growth inhibition rate) Abutilon theophrasti” value in the assay with Abutilon theophrasti is on record as 5 (Level 5: the growth inhibition rate is greater than 85%).

With `Nc1c(Cl)c(F)nc(OC(CC(F)(F)F)C(=O)SCc2ccccc2)c1Cl` (stereo not drawn) [Compound 42], in the assay with Galium spurium, the “Activity level (growth inhibition rate) Galium spurium” value is recorded as 5 (Level 5: the growth inhibition rate is greater than 85%). In addition, the “Activity level (growth inhibition rate) Monochoria Vaginalis” value in the assay with Monochoria vaginalis is on record as 5 (Level 5: the growth inhibition rate is greater than 85%). Moreover, the “Activity level (growth inhibition rate) Abutilon theophrasti” value with Abutilon theophrasti was 5 (Level 5: the growth inhibition rate is greater than 85%).

Regarding `Nc1c(Cl)c(F)nc(OC(N)C(=O)OCc2ccccc2)c1Cl` (stereo not drawn) [Compound 45], the “Activity level (growth inhibition rate) Galium spurium” value with Galium spurium is 5 (Level 5: the growth inhibition rate is greater than 85%). Besides, the “Activity level (growth inhibition rate) Monochoria Vaginalis” value with Monochoria vaginalis is 5 (Level 5: the growth inhibition rate is greater than 85%). Also, the “Activity level (growth inhibition rate) Abutilon theophrasti” value with Abutilon theophrasti is 5 (Level 5: the growth inhibition rate is greater than 85%).

Turning to `CSC(Oc1nc(F)c(Cl)c(N)c1Cl)C(=O)OCc1ccccc1` (stereo not drawn) [Compound 47], in the assay with Galium spurium, the “Activity level (growth inhibition rate) Galium spurium” value is on record as 5 (Level 5: the growth inhibition rate is greater than 85%). Moreover, the “Activity level (growth inhibition rate) Monochoria Vaginalis” value with Monochoria vaginalis is given as 5 (Level 5: the growth inhibition rate is greater than 85%). The “Activity level (growth inhibition rate) Abutilon theophrasti” value with Abutilon theophrasti is given as 5 (Level 5: the growth inhibition rate is greater than 85%).
